For this data set the following is noted: Liquid, Ebulliometric method (Recirculating still).

Numbers after ± are expanded uncertainties.

The term vapor or sublimation pressure denotes the pressure of vapour in equilibrium with the condensed phase. As to `CC#N` [acetonitrile], the “vapor or sublimation pressure” value (323.15 K) was 33.86 ± 0.38 kPa.

In the case of `O` [water], the “vapor or sublimation pressure” value was 3.166 ± 0.054 kPa (298.15 K) and 12.35 ± 0.087 kPa (323.15 K).

For the origin of these results see the NIST ThermoML archive (doi:10.1021/je800557h).
